Experimental data: PMC12067278, “A responsive living material prepared by diffusion reveals extracellular enzyme activity of cyanobacteria” (Proceedings of the National Academy of Sciences of the …, 2025)

Biological target: T1, AmiX (Synpcc7942_1548 gene product, putative amidase) (Synechococcus elongatus, UniProt Q31MZ1)
T1 construct: expressed in E. coli BL21, clarified lysate assayed; ORF PCR product ~1,320 bp
T1 sequence (Q31MZ1 1-439 limits assumed): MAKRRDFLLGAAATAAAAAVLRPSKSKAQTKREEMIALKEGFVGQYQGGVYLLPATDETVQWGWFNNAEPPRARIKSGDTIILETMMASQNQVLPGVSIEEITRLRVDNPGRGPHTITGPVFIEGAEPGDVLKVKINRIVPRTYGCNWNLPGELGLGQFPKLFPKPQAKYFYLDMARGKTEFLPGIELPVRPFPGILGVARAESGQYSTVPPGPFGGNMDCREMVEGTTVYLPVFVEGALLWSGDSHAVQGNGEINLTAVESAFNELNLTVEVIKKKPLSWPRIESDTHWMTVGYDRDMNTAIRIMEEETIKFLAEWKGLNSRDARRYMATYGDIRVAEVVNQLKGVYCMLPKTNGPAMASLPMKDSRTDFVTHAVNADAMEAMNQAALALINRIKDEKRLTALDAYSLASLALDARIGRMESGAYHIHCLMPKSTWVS
Assay: NBD-Cl amine-detection fluorescence assay ([…] nm), E. coli lysate
Assay type: biochemical
Conditions: 50 mM potassium phosphate pH 7.5, 2.5 mM NIPAm (50 uL of 50 mM in 1 mL), 20 h, high lysate background

C=CC(=O)NC(C)C [NIPAm, N-isopropylacrylamide]
NBD-Cl amine-detection fluorescence assay (485/538 nm), E. coli lysate: the lysate containing both the S. elongatus amidase and NIPAm produced significantly more fluorescence
